Experimental data as given in patent US20050112123A1, “Methods of treating proteinuria” (priority 2003, published 2005).
“Also recorded” adds a separate entry of the source.

Legend:
[1] = test system: normal mice; experiment: Pilot study of adverse side effects in normal mice; format: in vivo, mouse; settings: 16 mg/kg i.p. for 7 days
Description: Pilot studies were performed to determine if giving ATRA 16 mg/kg i.p. for 7 days caused adverse side effects in normal mice. […] To determine the effect of ATRA on podocytes in vivo, mice with experimental glomerular disease were given ATRA intraperitoneally (i.p.) on two consecutive days. […] Renal function was assessed by measuring proteinuria and BUN.

[2] = test system: mouse podocytes; experiment: MTT cell proliferation assay, mouse podocytes; format: cell-based; settings: at higher concentrations of ATRA than required with rat podocytes
Description: Experiments were also performed on podocytes derived from C57/bl mice. Glomeruli were sieved and prepared as previously described. […] 61:40-50. Podocytes were grown on collagen 1 coated plates with MGEC-media containing 5% fetal bovine serum (FBS: Summit biotechnology, Ft. Collins, Colo., USA), penicillin (100 U/ml), streptomycin (100 μg/ml), and glutamine (2 mmol/L; all Irvine Scientific, Santa Ana, Calif., USA) at 37° C. in 95% air/5% CO2. Podocytes were identified by previously described criteria (Shankland et al. (1999) supra) and by confirming the presence of podocyte specific proteins—including WT-1, nephrin, podocin, and ezrin—by immunostaining.
(§1) Exposure ofpodocvtes to ATRA. Rat podocytes, mouse podocytes, and growth permissive HSMP were plated at a concentration of 15,000 cell/cm^2 in standard media and allowed to adhere overnight.

[3] = test system: conditionally immortalized wild-type podocytes; experiment: MTT proliferation assay, wild-type (WT) podocytes under growth restriction; format: cell-based, mouse
Description: (§2) To test the hypothesis that ATRA altered the proliferative capacity of podocytes in HIV transgenic mice, conditionally immortalized podocytes harvested from transgenic HIV Tg-26 (Tg) and conditionally immortalized podocytes from transgene free or wild-type podocytes (controls) were compared in a series of studies. Both transgenic and wild-type cell lines were initially plated in “growth permissive” conditions (33° C.) and grown in 10 ml of “standard media,” consisting of 90% RPMI 1640 (Invitrogen, Grand Island, N.Y.), 10% fetal bovine serum (Hyclone, Logan, Utah), 1% L-glutamine (Irvine Scientific, Santa Ana, Calif.), 1% pen-strep (Biosource, Rockville, Md.), 1% sodium bicarbonate (Sigma-Aldrich, St Louis, Mo.) and 1% HEPES buffer (Sigma-Aldrich, Santa, Ana, Calif.), and 1% sodium pyruvate (Irvine Scientific, Santa Ana, Calif.). For growth promotion, 5 μl of mouse gamma interferon were added to 10 ml of media. […]
(§3) Each study group was assessed for proliferation (see below) at three different time points as follows: (i) day “1” of growth restriction which was defined as 24 h after plating cells into growth restrictive conditions; (ii) day 7 of growth restrictive conditions. […]
(§4) Cell proliferation was assessed by the MTT (Promega, Madison, Wis.) assay on days 1, 7, and 14 of growth restriction. […]

[4] = test system: transgenic podocytes; experiment: Immunostaining of HIV transgenic podocytes for podocyte and cell cycle proteins
[5] = test system: conditionally immortalized podocytes from transgenic HIV Tg-26; experiment: MTT proliferation assay, HIV transgenic (Tg) podocytes under growth restriction; format: cell-based, mouse; settings: 25 ATRA, FIG. 6
Description: as §2, §3, §4

[6] = test system: heat sensitive mouse podocytes; experiment: MTT cell proliferation assay, heat sensitive mouse podocytes (HSMP), growth permissive; format: cell-based; settings: heat sensitive mouse podocytes under growth permissive conditions; at higher concentrations than rat podocytes
Description: as §1

[7] = test system: Tg-26 HIV transgenic heterozygous mice; experiment: Tg-26 HIV transgenic mice (HIV-associated nephropathy) in vivo
[8] = test system: rat podocytes; experiment: MTT cell proliferation assay, rat podocytes
[9] = test system: rat podocytes; experiment: Immunofluorescent staining of cultured rat podocytes (nephrin, podocin)
[10] = test system: transgenic podocytes; experiment: Direct visualization (sequential photographs) of plated podocytes; format: cell-based, mouse; settings: addition of ATRA
Description: Cellular proliferation was also assessed through direct visualization of 10 cm plated cells at d 1, 2, 4, 6 and 8 growth restriction. Proliferation was assessed by the number of cells seen within a small circle marked on the plate. A total of four circles were marked and observed per plate. The circles were numbered #1-4 and photographed at the above time points. One exemplary circle was chosen per plate and followed through all time points. The four groups were compared at all time points.

[11] = transgenic podocytes, day 7 of growth restriction
[12] = ATRA treated Tg mice (5 animals)

Question: With `CC1=C(/C=C/C(C)=C/C=C/C(C)=C/C(=O)O)C(C)(C)CCC1` [ATRA, all-trans retinoic acid] as the compound, how does the adverse side effects [1] read?
Answer: The adverse side effects was “no weight loss, ruffled fur, withdrawal or diarrhea”.

Question: And the MTT absorbance [2]?
Answer: Its MTT absorbance is “significantly reduced MTT absorbance”.

Question: And the “proliferation of WT podocytes (MTT), exposed to ATRA vs without ATRA” value [3]?
Answer: The value was “no measurable difference”.

Question: What about the “cyclin A staining vs standard media” value ([4]; ATRA exposed group) of the same compound?
Answer: Its value is “decreased intensity of staining”.

Question: And the “cell number vs standard media” value ([4]; ATRA group, cyclin A staining)?
Answer: The value was “grossly decreased”.

Question: And the “WT-1 staining vs standard media” value [4, 11]?
Answer: The value was “increased staining intensity”.

Question: And the “cd2ap staining vs transgenic podocytes in standard media” value [4, 11]?
Answer: Its value is “increased intensity of staining”.

Question: What about the “cell size and cell number vs standard media” value [4, 11] of the same compound?
Answer: Its value is “appeared larger and decreased in number; also recorded: increased cell size and decreased cell number”.

Question: And the “CD2AP staining vs standard media group” value ([4]; transgenic podocytes, day 14 of growth restriction)?
Answer: Its value is “increased staining intensity”.

Question: And the “decrease in cell number” value ([4]; transgenic podocytes, day 14 time point)?
Answer: The value was “not as prominent”.

Question: What about the “reduction of proliferation of transgenic podocytes (MTT) compared to Tg podocytes without ATRA” value ([5]; day 7 of growth restriction, p<.05) of the same compound?
Answer: Its value is 50%.

Question: What about the “reduction of proliferation of transgenic podocytes (MTT) compared to Tg podocytes without ATRA” value ([5]; day 14 of growth restriction, p<0.005) of the same compound?
Answer: Its value is 25%.

Question: What about the MTT absorbance [6] of the same compound?
Answer: Its MTT absorbance is “significantly reduced MTT absorbance”.

Question: And the collapsed glomeruli [7, 12]?
Answer: Its collapsed glomeruli is “no collapsed glomeruli”.

Question: And the “glomeruli with 0-25% sclerosis” value [7, 12]?
Answer: The value was 4.8%.

Question: And the “glomeruli with 25-50 sclerosis” value [7, 12]?
Answer: Its value is 1.2%.

Question: And the “glomeruli with 50-75% or 75-100% sclerosis” value [7, 12]?
Answer: The value was “No glomeruli were seen”.

Question: And the “glomeruli with no sclerosis” value ([7]; ATRA treated Tg mice (5 animals), 50 glomeruli per tissue sample)?
Answer: Its value is 94%.

Question: And the “segmental sclerosis vs carrier treated transgenic animals” value ([7]; Tg mice, 4 months of life)?
Answer: The value was “reduced the sclerosis by a statistically significant amount”.

Question: And the “serum BUN” value ([7]; the different groups)?
Answer: The value was “no significant difference”.

Question: And the “proteinuria vs carrier treated transgenic animals (Tg C)” value ([7]; transgenic mice, ATRA 16 mg/kg intraperitoneal three times a week)?
Answer: Its value is “tended to have less proteinuria”.

Question: What about the “significance of difference in proteinuria vs carrier treated animals” value ([7]; transgenic mice, all other time points) of the same compound?
Answer: The value was “not significant”.

Question: What about the “significance of difference in proteinuria vs carrier treated animals” value ([7]; transgenic mice, at 80 days) of the same compound?
Answer: The value was “statistically significant”.

Question: What about the “interstitial disease score (tubular dilatation)” value ([7]; two ATRA treated Tg animals) of the same compound?
Answer: Its value is “no tubular dilatation”.

Question: What about the “rat podocyte proliferation (viable cell number by MTT assay)” value ([8]; 1 μM, 5 μM, 10 μM, 50 μM, 200 μM ATRA, FIG. 1) of the same compound?
Answer: Its value is “reduced rat podocyte proliferation in a concentration-dependent fashion”.

Question: What about the “MTT absorbance compared to control cells” value ([8]; rat podocytes, beginning at one μM, P<0.001) of the same compound?
Answer: The value was “significantly reduced MTT absorbance”.

Question: And the “podocin immunostaining compared to control” value ([9]; cultured rat podocytes, OptM ATRA)?
Answer: The value was “increased immunostaining”.

Question: And the “nephrin immunostaining compared to control cells exposed to vehicle” value ([9]; undifferentiated and proliferating rat podocytes, 10 μM ATRA)?
Answer: Its value is “nephrin immunostaining increased”.

Question: What about the “proliferation of transgenic podocytes (sequential photographs, 10 cm culture dishes)” value [10] of the same compound?
Answer: Its value is “attenuated”.
